From US10213451B2, “Methods and compounds for modulating the secretion or expression of adhesion proteins or angiopoietins of cells” (PACIFIC ARROW LIMITED, priority 2004, dated 2019)
Values after ≈ are worked out from the molar mass of the structure shown. “Also recorded” adds a separate entry of the source.

Assays:
human red blood cells = assay: Hemolytic activity; format: cell-based; details: FIG. 3D
Description: (§1) Methods: • Human whole blood was obtained from the Houston Gulf Coast Blood Center. • Red blood cells were isolated by the following method: Human blood (in EDTA) was diluted 1:1 with PBS, underlay with 4 mL of Histopaque-1077 (SIGMA) and was centrifuged at 400 g for 30 min. • Red blood cells (RBC) were collected and washed three times with PBS. • 10% suspensions of RBC were prepared with PBS before use. • 50 μL of RBC suspension was added to 2 mL of saponins with different concentration. • The suspension was mixed by vortexing then left to sit at room temperature for 60 minutes. • The suspension was centrifuged at 3000 rpm for 5 min. Absorbance of the supernatant was measured at 540 nm.

[1] = tested on: red blood cells (hemolysis); assay: Hemolytic activity; format: cell-based, human; details: human red blood cells (isolated from whole blood); human red blood cells, FIG. 5A
Description: as §1

[2] = tested on: OVCAR3 cells (from ovary); assay: MTT assay OVCAR3; format: cell-based; details: Homo sapiens, OVCAR-3; OVCAR3, Serous
Description: Cells. Human cancer cell lines were obtained from American Type Culture Collection: HTB-9 (bladder), HeLa-S3 (cervix), DU145 (prostate), H460 (lung), MCF-7 (breast), K562 (leukocytes), HCT116 (colon), HepG2 (liver), U2OS (bone), T98G (brain), SK-MEL-5 (Skin) and OVCAR-3 (ovary). The cells were grown in following culture media: HeLa-53, DU145, MCF-7, Hep-G2 and T98G are in MEN (Earle's salts); HTB-9, H460, K562 and OVCAR-3 in RPMI-1640; HCT-116 and U2OS in McCoy-5A. They are supplemented with 10% fetal calf serum, glutamine and antibiotics, and incubated in an incubator with 5% CO2 humidified at 37° C.
MTT Assay. […] The formazan (product of the reduction of tetrazolium by viable cells) formed and was dissolved with DMSO and the O.D. at 490 nm, and was measured by an ELISA reader. The MTT level of the cells before drug-treatment was also measured (T0). The % cell-growth (% G) is calculated as: % G=(TD−T0/TC−T0)×100(1), where TC or TD represents O.D. readings of control or drug-treated cells. When T0>TD, then the cytotoxicity (LC) expressed as % of the control is calculated as: % LC=(TD−T0/T0)×100(2).
Majority of ovarian cancers arise from the surface epithelium of ovary, most of them belong to the histological subtypes of clear cell and serous carcinoma. […] The inhibition activity exerted by Xanifolia-Y was determined with MTT assay.

RMG2 = assay: MTT assay RMG2; format: cell-based; details: Homo sapiens; RMG2, Clear cell
Description: (§2) Majority of ovarian cancers arise from the surface epithelium of ovary, most of them belong to the histological subtypes of clear cell and serous carcinoma. We obtained 10 more human ovarian carcinoma cell-lines of these histological subtypes for these studies. The inhibition activity exerted by Xanifolia-Y was determined with MTT assay.

Hey 8A = assay: MTT assay Hey 8A; format: cell-based, human
Description: as §2
Cells: Hey8A (human ovarian carcinoma cells) were grew in RPMI 1640 medium to 90% confluent before drug-treatment. Drug-treatment: Cells cultures were replaced with fresh RPMI medium containing either DMSO (as control) [D1]; or Xanifolia-Y (10, 15, or 20 ug/ml) [Y1, Y2 and Y3]. Aliquot of medium was removed as 0 hours sample and no FN was detected at this time. After 24 hours, aliquot of culture medium was taken out for Fibronectin determination (Western blot method). Cell viability at 24 hours was determined by MTT assay. Cultures were replaced with RPMI medium (5 ml) with MTT and incubated for an hour. The formation of formazan was dissolved in DMSO and OD at 570 nm was measured.

[3] = tested on: ES2 (human ovarian cancer) cells transplanted intra-peritoneally; assay: Animal study, survival of mice with intra-peritoneal ES2 tumor; format: in vivo, Athymic Nu/Nu mice; details: for survival of tumor bearing mice: 2.5 mg/kg; for median survival time: i.p. 2.5 mg/kg
Description: Methods • Athymic Nu/Nu mice are divided into three groups (A, B and C) with four animals in each group. • On day 0, mice of group A and B were transplanted intra-peritoneally with ES2 (human ovarian cancer) cells. • On day 1, mice from B and C groups received drug (Xanifolia-Y, by i.p. route at dose of 5 mg/kg) • On days 2 to 4, and 7 to 11, B and C groups animals received daily drug administration of Xanifolia-Y, by i.p. route at dose of 2.5 mg/kg. • Group A mice have no drug-treatment.
Methods • Athymic Nu/Nu mice were divided into three groups (A, D and E) with four animals in each group. • On day 0, all mice were transplanted intra-peritoneally with ES2 (human ovarian cancer) cells. • Group A mice received no drug-treatment. • Group D: From day 4, mice received a daily drug administration of Xanifolia-Y, via i.p. route for 9 days at dose of 2.5 mg/kg. • Group E: From day 10, mice received daily drug administration of Xanifolia-Y, via i.p. route for 10 days at dose of 2.5 mg/kg. […]

[4] = tested on: ES2 (human ovarian cancer) cells transplanted sc; assay: Animal study, size of sc ES2 tumor; format: in vivo, Athymic Nu/Nu mice
Description: • Athymic Nu/Nu mice (2-3 months old) were transplanted sc with ES2 (human ovarian cancer) cells. • Five days after the transplant (day one), mice were divided into two groups (H and J) with two animals in each group. • Group H: On days 1-5, and 8-10 mice received daily drug administration of Xanifolia-Y, by i.p. route at dose of 2.5 mg/kg. • Group J mice received no drug-treatment.

K562 cells membrane = assay: EM study of membrane structure; format: cell-based, human; details: 5 uM, 60 min
From the text: Xanifolia-Y has a potent hemolytic activity in red blood cells (FIG. 27). To study the effect of Xanifolia-Y on membrane structure, the morphology of cell membrane treated with Xanifolia-Y was examined with EM. […] Solvent DMSO and AKOH-Y (a derivative of Xanifolia-Y without the angeloyl group and it has no activity) served as controls. Cells were negative stained with 1% UAc and subsequently examined with EM.

[5] = drug-treatment started on day 10 after tumor inoculation
[6] = drug-treatment starting on day 4 after tumor inoculation

SMILES	hemolytic activity of hydrolysed products of compound Y (human red blood cells)	IC50 at 60 min [1] [mg/L]	IC50 [2] [µM]	IC50 (RMG2) [µM]	state of cells after drug-treatment (Hey 8A; Hey8A, 15 ug/ml and 20 ug/ml, 24 hours)	activity at 10 µg/mL (Hey 8A; Homo sapiens, Hey8A, 10 ug/ml, 24 hours, read-out: growth of cells, % of control (MTT)) [%]	IC50 (Hey 8A; Homo sapiens, Hey 8A, Serous) [µM]	survival of mice without tumor given drug ([3]; Group C: no tumor, i.p. 5 mg/kg day 1, 2.5 mg/kg days 2-4 and 7-11)	survival of tumor bearing mice ([3]; Group D: i.p. 2.5 mg/kg daily, 9 times from day 4)	survival of tumor bearing mice ([3]; Group E: i.p. 2.5 mg/kg daily, 10 times from day 10)	extension of life span [3, 5] [%]	extension of life span [3, 6] [%]	median survival time [3, 5] [days]	median survival time [3, 6] [days]	tumor size smaller than in mice with no drug ([4]; 10 days period) [%]	tumor size ([4]; Group H: i.p. 2.5 mg/kg days 1-5 and 8-10, in 10 days) [mm]	membrane morphology (EM) (K562 cells membrane)
C/C=C(/C)C(=O)O[C@H]1[C@H](OC(=O)/C(C)=C\C)[C@@]2(CO)C(CC1(C)C)C1=CCC3[C@@]4(C)CC[C@H](O)C(C)(C)C4CC[C@@]3(C)[C@]1(C)[C@@H](O)[C@H]2O (some centres unmarked) [ACH-Y]	reduced hemolytic activity	–	–	–	–	–	–	–	–	–	–	–	–	–	–	–	–
C/C=C(/C)C(=O)O[C@H]1[C@H](OC(=O)/C(C)=C\C)[C@@]2(CO)C(CC1(C)C)C1=CCC3[C@@]4(C)CC[C@H](O[C@@H]5OC(C(=O)O)[C@@H](O)C(O[C@@H]6O[C@@H](CO)C(O)C6O)C5O[C@@H]5OC(CO)[C@H](O)C(O)C5O)C(C)(C)C4CC[C@@]3(C)[C@]1(C)[C@@H](O)[C@H]2O (stereo partly drawn) [Xanifolia-Y, 3-O-[β-D-galactopyranosyl (1→2)]-α-L-arabinofuranosy (1→3)-β-D-glucuronopyranosyl-21,22-O-diangeloyl-3β, 15α, 16α, 21β, 22α, 28-hexahydroxyolean-12-ene]	–	1 (≈ 0.876 µM)	2.2	8.8	found dead (floating)	83	10.5	over 50 days	all survived; also recorded: no death in 50 days	half the number of mice survived; also recorded: half of the mice survive in 50 days	29	141	31	58	45	10	patches of pits were found in the membrane
